Experimental data from article PMC12040169 (PLOS Biology, 2025).

test: in vitro; details: human, hela cells, % viability

Point of comparison: `O=C1NCC2(CCCN(Cc3ccccc3F)C2)Oc2ccccc21` (centres unmarked) [CBK284901], viability at 28.5 h, 10 µM 95%. Against it:
- O=C1NCC2(CCCN(Cc3ccc(F)cc3)C2)Oc2ccccc21 (centres unmarked) [CBK284857] — lower, 92.7%
- CCOC(=O)C1C2CCC3(CC(=O)c4cc(Cl)ccc4O3)C21 (centres unmarked) [CBK284858] — higher, 107%
- O=c1c2cc(F)ccc2nc2n1CCN(Cc1cccs1)CC2 [CBK284859] — higher, 110%
- O=c1c2cc(F)ccc2nc2n1CCN(Cc1ccsc1)CC2 [CBK284860] — higher, 106%
- O=C(Cn1c(-c2ccc(F)cc2)cc2cccnc21)NC1CC1 [CBK284861] — higher, 103%
- O=C(CCn1c(C(F)(F)F)cc2cccnc21)NCc1cccnc1 [CBK284865] — higher, 106%
- Cn1cc(NC(=O)CCn2c(C(F)(F)F)cc3cccnc32)cn1 [CBK284866] — lower, 92.5%
- CC(=O)N1C2CCC1CC(O)(Cn1ccc3ccnc(Cl)c31)C2 (centres unmarked) [CBK284868] — higher, 106%
- O=C(CCn1c(C(F)(F)F)cc2cccnc21)N1CCOCC1 [CBK284869] — higher, 96.4%
- CC1CCN(C(=O)C2C3CCC4(CC(=O)c5ccccc5O4)C32)CC1 (centres unmarked) [CBK284872] — higher, 98.7%
- C=CCNC(=O)C1C2CCC3(CC(=O)c4cc(Cl)ccc4O3)C21 (centres unmarked) [CBK284873] — lower, 86.3%
- CC1CCc2n[nH]c(C(=O)N3CCc4ncc(Cl)cc4C3)c2C1 (centres unmarked) [CBK284874] — lower, 93.6%
- CN(C)[C@@H]1CN(Cc2cccnc2)C[C@H]1c1cn(C)c2ccccc12 [CBK284875] — higher, 110%
- CN1CCCc2cc(CN3CCC4(CCCNC4=O)CC3)ccc21 [CBK284876] — higher, 101%
- O=C1NCCCC12CCN(Cc1cccc(F)c1F)CC2 [CBK284877] — lower, 91.8%
- O=C1NCCCC12CCN(Cc1ccccc1N1CCCCC1)CC2 [CBK284878] — higher, 95.5%
- Cc1ccc2c(c1)C(NC(=O)C1CC1)CC1(CCOCC1)O2 (centres unmarked) [CBK284879] — lower, 93.4%
- CCOC(=O)C1(Cc2cc(-c3cccc(F)c3)no2)CCNCC1 [CBK284881] — lower, 89.4%
- Cc1cc(C[C@@H]2COC[C@H]2NCc2cccc(Cl)c2)on1 [CBK284885] — lower, 89.9%
- CN1C[C@]2(CC[C@@H](C(=O)N3CCCC3)CC2)Oc2ccccc2C1=O [CBK284886] — higher, 103%
- O=C1CN(C(=O)CCn2c(C(F)(F)F)cc3cccnc32)CCN1 [CBK284888] — lower, 92.8%
- CCNC(=O)[C@H]1CC[C@]2(CC1)CNC(=O)c1cc(Cl)ccc1O2 [CBK284890] — higher, 95.4%
- O=C(c1cccnc1)N1CCC(c2cc3ccccc3cn2)CC1 [CBK284891] — higher, 101%
- O=C(c1cc[nH]n1)N1CCC(c2cc3ccccc3cn2)CC1 [CBK284892] — lower, 91.7%
- CCOC(=O)[C@H]1CC[C@]2(CC1)CNC(=O)c1ccccc1O2 [CBK284893] — lower, 92.5%
- CN(C)C(=O)[C@H]1CC[C@]2(CC1)CNC(=O)c1ccccc1O2 [CBK284894] — lower, 92.7%
- CN1CCN(C(=O)CCn2c(C(F)(F)F)cc3cccnc32)CC1 [CBK284896] — lower, 93.7%
- Cn1nc(C2CCN(C(=O)c3cccc(F)c3)CC2)c2cccnc21 [CBK284898] — lower, 94%
- O=C1NCC2(CCCN(C(=O)c3cccs3)C2)Oc2ccccc21 (centres unmarked) [CBK284900] — higher, 102%
- Fc1ccc(CN2CCC(c3n[nH]c4ncccc34)CC2)cc1 [CBK284902] — higher, 96.2%
- O=C(c1cccc(F)c1)N1CCC(c2n[nH]c3ncccc23)CC1 [CBK284907] — higher, 109%
- O=C(c1cc(F)cc(F)c1)N1CCC(c2n[nH]c3ncccc23)CC1 [CBK284909] — lower, 87.9%
- Cc1ccsc1C(=O)N1CCC(c2n[nH]c3ncccc23)CC1 [CBK284910] — lower, 92.2%
- Cc1ccc(C(=O)N2CCC(c3n[nH]c4ncccc34)CC2)s1 [CBK284911] — lower, 90.8%
- Cn1cc(C2CCCCCN2C(=O)c2ccc(F)cc2)cn1 (centres unmarked) [CBK284913] — lower, 76.8%
- Cn1ccc(C2CCCCCN2C(=O)c2c(Cl)cnn2C)n1 (centres unmarked) [CBK284914] — higher, 102%
- Cn1ncc(Cl)c1C1CCCCCN1C(=O)c1ccco1 (centres unmarked) [CBK284915] — higher, 104%
- Cc1noc(C)c1C(=O)N1CCCCCC1c1c(Cl)cnn1C (centres unmarked) [CBK284918] — lower, 93.3%
- O=C(c1cc[nH]n1)N1CCCC(c2cc3ccccc3cn2)C1 (centres unmarked) [CBK284921] — lower, 85.2%
- O=C1CC2(CCC3C(C(=O)NC4CCCC4)C32)Oc2ccccc21 (centres unmarked) [CBK284922] — higher, 97.6%
- CCN(CC)C(=O)C1C2CCC3(CC(=O)c4ccccc4O3)C21 (centres unmarked) [CBK284923] — higher, 105%
- Cn1nc(C2CCN(C(=O)c3cccs3)CC2)c2cccnc21 [CBK284925] — lower, 82.9%
- Cc1cc(C)n(CC(=O)N2CCCC(c3cc4cccnc4[nH]3)C2)n1 (centres unmarked) [CBK284928] — higher, 96.2%
- CC(C)n1nccc1C(=O)N1CCCC(c2cc3cccnc3[nH]2)C1 (centres unmarked) [CBK284930] — higher, 99.3%
- CC1CCCN(C(=O)C2C3CCC4(CC(=O)c5ccccc5O4)C32)C1 (centres unmarked) [CBK284932] — lower, 89.8%
- Cc1cc(C[C@@H]2CCC[C@H]2NCc2cccnc2)on1 [CBK284933] — higher, 97.1%
- Cc1cc(C[C@@H]2CCC[C@H]2NCc2nc3ccccc3[nH]2)on1 [CBK284935] — lower, 87.3%
- O=C(C1CCCCC1)N1CCCC(c2cc3cccnc3[nH]2)C1 (centres unmarked) [CBK284938] — higher, 98.4%
- O=C(c1cccc(F)c1)N1CCCC(c2cc3cccnc3[nH]2)C1 (centres unmarked) [CBK284939] — higher, 122%
- O=C(c1cccs1)N1Cc2ccccc2OC2(CCOCC2)C1 [CBK284942] — higher, 103%
- C=Cn1cc(CN2CCCC(c3cc4cccnc4[nH]3)C2)c(C)n1 (centres unmarked) [CBK284944] — higher, 115%
- CC(C)(C)C(=O)N1CCCC(c2cc3cccnc3[nH]2)C1 (centres unmarked) [CBK284945] — higher, 102%
- Cc1ccc(-c2cc(CC3(C(=O)NC4CC4)CCOCC3)on2)cc1 [CBK284946] — higher, 99.7%
- O=C1CC2(CCC3C(C(=O)N4CCCCC4)C32)Oc2ccccc21 (centres unmarked) [CBK284947] — higher, 105%
- Cn1cncc1CN1CCCC(c2cc3cccnc3[nH]2)C1 (centres unmarked) [CBK284948] — higher, 98.4%
- CCCn1ncc(CN2CCC(c3cc4cccnc4[nH]3)CC2)c1C [CBK284949] — higher, 97.2%
- Cc1ccc2c(c1)C(=O)CC1(CCC3C(C(=O)N4CCCC4)C31)O2 (centres unmarked) [CBK284951] — higher, 98.3%
- Cc1nccn1CC1(O)CCN(Cc2ccc(F)c(F)c2)CC1 [CBK284955] — higher, 117%
- O=C(CCn1c(C(F)F)cc2cccnc21)N1CCOCC1 [CBK284956] — higher, 101%
- CC1CCCCN1C(=O)C1C2CCC3(CC(=O)c4ccccc4O3)C21 (centres unmarked) [CBK284960] — higher, 101%
- Cc1nccn1CC1(O)CCN(Cc2ccccc2F)CC1 [CBK284961] — higher, 105%
- CC(C)(C)NC(=O)C1C2CCC3(CC(=O)c4cc(Cl)ccc4O3)C21 (centres unmarked) [CBK284963] — higher, 109%
- Cc1ccc(-c2cc3cccnc3n2CCC(=O)NC2CC2)cn1 [CBK284964] — higher, 97.4%
- CN1CCC2(CC1)CN(C(=O)C1CC1)Cc1ccccc1O2 [CBK284967] — higher, 102%
